Results: PubChem BioAssay (NCI)
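Each compound was tested at five concentrations against cells in 96-well plates for 48 hours. At the GI50, growth is halved. The concentration for full growth arrest is given as TGI.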

Tests used:
Test in all cases: DTP human tumour cell line panel, 48 h
LOX IMVI melanoma = test system: LOX IMVI melanoma
U251 CNS = test system: U251 CNS
OVCAR-4 ovarian = test system: OVCAR-4 ovarian
786-0 renal = test system: 786-0 renal
SN12C renal = test system: SN12C renal
CAKI-1 renal = test system: CAKI-1 renal
OVCAR-8 ovarian = test system: OVCAR-8 ovarian
MALME-3M melanoma = test system: MALME-3M melanoma
RXF 393 renal = test system: RXF 393 renal
EKVX NSCLC = test system: EKVX NSCLC
NCI-H522 lung = test system: NCI-H522 lung
MCF7 breast = test system: MCF7 breast
SK-MEL-2 melanoma = test system: SK-MEL-2 melanoma
DU-145 prostate = test system: DU-145 prostate
A498 renal = test system: A498 renal
SK-OV-3 ovarian = test system: SK-OV-3 ovarian
HOP-62 NSCLC = test system: HOP-62 NSCLC
HCT-116 colon = test system: HCT-116 colon
HOP-92 NSCLC = test system: HOP-92 NSCLC
SW-620 colon = test system: SW-620 colon
T-47D breast = test system: T-47D breast
SNB-75 CNS = test system: SNB-75 CNS
SF-539 CNS = test system: SF-539 CNS
PC-3 prostate = test system: PC-3 prostate
HS 578T breast = test system: HS 578T breast
M14 melanoma = test system: M14 melanoma
MDA-MB-231 breast = test system: MDA-MB-231 breast
TK-10 renal = test system: TK-10 renal
A549 NSCLC = test system: A549 NSCLC
OVCAR-3 ovarian = test system: OVCAR-3 ovarian
NCI-H460 lung = test system: NCI-H460 lung
NCI/ADR-RES ovarian = test system: NCI/ADR-RES ovarian
SNB-19 CNS = test system: SNB-19 CNS
SK-MEL-5 melanoma = test system: SK-MEL-5 melanoma
SF-295 CNS = test system: SF-295 CNS
HL-60(TB) leukemia = test system: HL-60(TB) leukemia
HT29 colon = test system: HT29 colon
K-562 leukemia = test system: K-562 leukemia
MOLT-4 leukemia = test system: MOLT-4 leukemia
MDA-MB-435 = test system: MDA-MB-435
SK-MEL-28 melanoma = test system: SK-MEL-28 melanoma
IGROV1 ovarian = test system: IGROV1 ovarian
UACC-257 melanoma = test system: UACC-257 melanoma
COLO 205 colon = test system: COLO 205 colon
CCRF-CEM leukemia = test system: CCRF-CEM leukemia
ACHN renal = test system: ACHN renal
BT-549 breast = test system: BT-549 breast
UACC-62 melanoma = test system: UACC-62 melanoma
KM12 colon = test system: KM12 colon
UO-31 renal = test system: UO-31 renal
HCC-2998 colon = test system: HCC-2998 colon
NCI-H226 lung = test system: NCI-H226 lung
SF-268 CNS = test system: SF-268 CNS
SR leukemia = test system: SR leukemia
OVCAR-5 ovarian = test system: OVCAR-5 ovarian
MDA-MB-468 breast = test system: MDA-MB-468 breast
HCT-15 colon = test system: HCT-15 colon
RPMI-8226 leukemia = test system: RPMI-8226 leukemia
NCI-H23 lung = test system: NCI-H23 lung

`COc1ccc(CN2[C@@H](C(=O)NCc3ccc(C(=O)NO)cc3)Cc3c([nH]c4ccccc34)[C@@H]2C)cc1` showed a GI50 (LOX IMVI melanoma) of 3.23 µM, a TGI (LOX IMVI melanoma) of 6.3 µM and a GI50 (U251 CNS) of 2.88 µM. The TGI (U251 CNS) was 8.88 µM, the GI50 (OVCAR-4 ovarian) was 4.58 µM and the TGI (OVCAR-4 ovarian) was > 21 µM. For the same compound, the GI50 (786-0 renal) was 5.15 µM, the TGI (786-0 renal) was > 21 µM and the GI50 (SN12C renal) was 3.88 µM. It also gave a TGI (SN12C renal) of 13 µM, a GI50 (CAKI-1 renal) of 2.83 µM and a TGI (CAKI-1 renal) of 7.86 µM. The GI50 (OVCAR-8 ovarian) was 2.44 µM, the TGI (OVCAR-8 ovarian) was 8.91 µM and the GI50 (MALME-3M melanoma) was 0.874 µM. The TGI (MALME-3M melanoma) was 4.86 µM, the GI50 (RXF 393 renal) was 0.724 µM and the TGI (RXF 393 renal) was 3.71 µM. The GI50 (EKVX NSCLC) was 2.24 µM, the TGI (EKVX NSCLC) was 13.5 µM and the GI50 (NCI-H522 lung) was 1.43 µM. The TGI (NCI-H522 lung) was 5.35 µM, the GI50 (MCF7 breast) was 3.02 µM and the TGI (MCF7 breast) was 13.8 µM. For the same compound, the GI50 (SK-MEL-2 melanoma) was 3.32 µM, the TGI (SK-MEL-2 melanoma) was 7.3 µM and the GI50 (DU-145 prostate) was 4.41 µM. It also gave a TGI (DU-145 prostate) of 17.8 µM, a GI50 (A498 renal) of 0.822 µM and a TGI (A498 renal) of 6.26 µM. It also gave a GI50 (SK-OV-3 ovarian) of 2.58 µM, a TGI (SK-OV-3 ovarian) of 6.14 µM and a GI50 (HOP-62 NSCLC) of 2.56 µM. For the same compound, the TGI (HOP-62 NSCLC) was 7.92 µM, the GI50 (HCT-116 colon) was 1.47 µM and the TGI (HCT-116 colon) was > 21 µM. The GI50 (HOP-92 NSCLC) was 2.2 µM, the TGI (HOP-92 NSCLC) was 6.25 µM and the GI50 (SW-620 colon) was 2.34 µM. The TGI (SW-620 colon) was 11.2 µM, the GI50 (T-47D breast) was 3.56 µM and the TGI (T-47D breast) was 12.8 µM. For the same compound, the GI50 (SNB-75 CNS) was 1.23 µM, the TGI (SNB-75 CNS) was 7.27 µM and the GI50 (SF-539 CNS) was 2.7 µM. The TGI (SF-539 CNS) was 7.12 µM, the GI50 (PC-3 prostate) was 3.02 µM and the TGI (PC-3 prostate) was > 21 µM. For the same compound, the GI50 (HS 578T breast) was 1.26 µM, the TGI (HS 578T breast) was 13 µM and the GI50 (M14 melanoma) was 4.05 µM. The TGI (M14 melanoma) was > 21 µM, the GI50 (MDA-MB-231 breast) was 2.67 µM and the TGI (MDA-MB-231 breast) was 5.73 µM. It also gave a GI50 (TK-10 renal) of 2.6 µM, a TGI (TK-10 renal) of 11.4 µM and a GI50 (A549 NSCLC) of 4.3 µM. For the same compound, the TGI (A549 NSCLC) was 16.5 µM, the GI50 (OVCAR-3 ovarian) was 2.51 µM and the TGI (OVCAR-3 ovarian) was 7.84 µM. For the same compound, the GI50 (NCI-H460 lung) was 2.86 µM, the TGI (NCI-H460 lung) was 10.6 µM and the GI50 (NCI/ADR-RES ovarian) was 8.01 µM. The TGI (NCI/ADR-RES ovarian) was > 21 µM, the GI50 (SNB-19 CNS) was 3.49 µM and the TGI (SNB-19 CNS) was 8.5 µM. For the same compound, the GI50 (SK-MEL-5 melanoma) was 2.96 µM, the TGI (SK-MEL-5 melanoma) was 6.02 µM and the GI50 (SF-295 CNS) was 3.02 µM. It also gave a TGI (SF-295 CNS) of 6.21 µM, a GI50 (HL-60(TB) leukemia) of 2.65 µM and a TGI (HL-60(TB) leukemia) of 15.4 µM. For the same compound, the GI50 (HT29 colon) was 3.84 µM, the TGI (HT29 colon) was > 21 µM and the GI50 (K-562 leukemia) was 1.93 µM. The TGI (K-562 leukemia) was > 21 µM, the GI50 (MOLT-4 leukemia) was 1.6 µM and the TGI (MOLT-4 leukemia) was > 21 µM. It also gave a GI50 (MDA-MB-435) of 1.27 µM, a TGI (MDA-MB-435) of 5.56 µM and a GI50 (SK-MEL-28 melanoma) of 2.6 µM. It also gave a TGI (SK-MEL-28 melanoma) of 8.76 µM, a GI50 (IGROV1 ovarian) of 2.56 µM and a TGI (IGROV1 ovarian) of 5.78 µM. It also gave a GI50 (UACC-257 melanoma) of 2.19 µM, a TGI (UACC-257 melanoma) of 14.4 µM and a GI50 (COLO 205 colon) of 3.59 µM. The TGI (COLO 205 colon) was 8.33 µM, the GI50 (CCRF-CEM leukemia) was 1.27 µM and the TGI (CCRF-CEM leukemia) was > 21 µM. The GI50 (ACHN renal) was 3.67 µM, the TGI (ACHN renal) was 9.07 µM and the GI50 (BT-549 breast) was 5.95 µM. For the same compound, the TGI (BT-549 breast) was 15.6 µM, the GI50 (UACC-62 melanoma) was 2.08 µM and the TGI (UACC-62 melanoma) was 5.29 µM. For the same compound, the GI50 (KM12 colon) was 3.3 µM, the TGI (KM12 colon) was 7.85 µM and the GI50 (UO-31 renal) was 2.93 µM. It also gave a TGI (UO-31 renal) of 6.19 µM, a GI50 (HCC-2998 colon) of 2.72 µM and a TGI (HCC-2998 colon) of 5.81 µM. For the same compound, the GI50 (NCI-H226 lung) was 1.98 µM, the TGI (NCI-H226 lung) was 10.2 µM and the GI50 (SF-268 CNS) was 4.21 µM. For the same compound, the TGI (SF-268 CNS) was 11.2 µM, the GI50 (SR leukemia) was 0.335 µM and the TGI (SR leukemia) was > 21 µM. The GI50 (OVCAR-5 ovarian) was 1.43 µM, the TGI (OVCAR-5 ovarian) was 8.11 µM and the GI50 (MDA-MB-468 breast) was 0.861 µM. It also gave a TGI (MDA-MB-468 breast) of 4.45 µM, a GI50 (HCT-15 colon) of 4.56 µM and a TGI (HCT-15 colon) of 19.8 µM. The GI50 (RPMI-8226 leukemia) was 3.03 µM, the TGI (RPMI-8226 leukemia) was > 21 µM and the GI50 (NCI-H23 lung) was 3.33 µM. The TGI (NCI-H23 lung) was 7.51 µM.
